Laboratory results published in patent US12692244B2, “Griseofulvin 4 position etherified derivatives and their application” (Yan'an University, priority 2023, dated 2026).
In brackets after ≈: the same amount, converted by molar mass.

Experiments:
Test in all cases: Antifungal activity assay, mycelial growth inhibitory rate method
Type in all cases: cell-based
Cytospora sp. = conditions: for inhibition of growth at 100 µg/mL: 100 μg/mL in PDA medium, 28° C., 48-72 h, read-out: Average values of antifungal rate (%) C.s.; for IC50: mycelial growth, PDA medium, 100-0.0488 μg/mL
Experimental: (§1) The antifungal activities were evaluated against seven plant phytopathogenic fungi, by the mycelial growth inhibitory rate method, according to a reported method (Yu-Bin Bai, Meng Zhang, Ding Li, Yu Zhao, Liang-Zhu Huang, and Jin-Ming Gao. J. Agric. Food. Chem., 2023, 71, 16, 6236-6248). The target phytopathogenic fungi are Cytospora sp., Alternaria solani Sorauer, Alternaria alternate, Botrytis sp., Botrytis cinerea Pers., Colletotrichum gloeosporioides and Botryosphaeria dothidea. 100 μg/mL PDA mediums were prepared at 50° C. The petri dishes were incubated and cultivated at 28° C. for 48-72 h. Each sample was measured in triplicate, each colony diameter of all triplicates was measured 4 times by cross bracketing method. Hymexazol (Hym) as the positive control and the result of inhibition rate was calculated according to the formula: [formula] • where C represents the diameter of fungal growth on untreated PDA, and T represents the diameter of fungal growth on treated PDA. […] PDA mediums with different compound concentrations (100, 50, 25, 12.5, 6.25, 3.125, 1.5625, 0.78125, 0.3906, 0.1953, 0.0977, 0.0488 μg/mL) was prepared and their half inhibitory concentration (IC50) values were accurately tested. All half inhibitory concentration results are shown in Table 2 and Hymexazol (Hym) as the positive control.

Botrytis cinerea Pers. = conditions: for inhibition of growth at 100 µg/mL: 100 μg/mL in PDA medium, 28° C., 48-72 h, read-out: Average values of antifungal rate (%) B.c.; for IC50: mycelial growth, PDA medium, 100-0.0488 μg/mL
Experimental: as §1

Botrytis sp. = conditions: for inhibition of growth at 100 µg/mL: 100 μg/mL in PDA medium, 28° C., 48-72 h, read-out: Average values of antifungal rate (%) B.s.; for IC50: mycelial growth, PDA medium, 100-0.0488 μg/mL
Experimental: as §1

[1] = test system: Colletotrichum gloeosporioides; conditions: for inhibition of growth at 100 µg/mL: 100 μg/mL in PDA medium, 28° C., 48-72 h, read-out: Average values of antifungal rate (%) C.g.; for IC50: mycelial growth, PDA medium, 100-0.0488 μg/mL
Experimental: as §1

Botryosphaeria dothidea = conditions: for inhibition of growth at 100 µg/mL: 100 μg/mL in PDA medium, 28° C., 48-72 h, read-out: Average values of antifungal rate (%) B.d.; for IC50: mycelial growth, PDA medium, 100-0.0488 μg/mL
Experimental: as §1

[2] = test system: Alternaria solani Sorauer; conditions: for inhibition of growth at 100 µg/mL: 100 μg/mL in PDA medium, 28° C., 48-72 h, read-out: Average values of antifungal rate (%) A.s.; for IC50: mycelial growth, PDA medium, 100-0.0488 μg/mL
Experimental: as §1

Alternaria alternate = conditions: for inhibition of growth at 100 µg/mL: 100 μg/mL in PDA medium, 28° C., 48-72 h; for IC50: mycelial growth, PDA medium, 100-0.0488 μg/mL
Experimental: as §1

| IC50 (Botrytis cinerea Pers.) [mg/L] | IC50 [1] [mg/L] | IC50 (Botryosphaeria dothidea) [mg/L] | IC50 [2] [mg/L] | IC50 (Alternaria alternate) [mg/L] | Structure (SMILES) | inhibition of growth at 100 µg/mL (Cytospora sp.) [%] | IC50 (Cytospora sp.) [mg/L] | inhibition of growth at 100 µg/mL (Botrytis cinerea Pers.) [%] | inhibition of growth at 100 µg/mL (Botrytis sp.) [%] | IC50 (Botrytis sp.) [mg/L] | inhibition of growth at 100 µg/mL [1] [%] | inhibition of growth at 100 µg/mL (Botryosphaeria dothidea) [%] | inhibition of growth at 100 µg/mL [2] [%] | inhibition of growth at 100 µg/mL (Alternaria alternate) [%] |
| --- | --- | --- | --- | --- | --- | --- | --- | --- | --- | --- | --- | --- | --- | --- |
| > 100 | > 25 | > 100 | > 100 | > 100 | CCCCOc1cc(OC)c(Cl)c2c1C(=O)[C@@]1(O2)C(OC)=CC(=O)C[C@H]1C [Compound 03, 4 Position Butyl Griseofulvin Derivative] | 29.1 | > 100 | 19.1 | 62.3 | > 25 | 68.4 | 31.8 | 26.9 | 7.41 |
| > 100 | > 100 | > 100 | > 100 | > 100 | COC1=CC(=O)C[C@@H](C)[C@]12Oc1c(Cl)c(OC)cc(OCc3ccc(C(C)=O)cc3)c1C2=O [Compound 08, 4 Position 1-(4-(Methyl)Phenyl)-Ethanone Griseofulvin Derivative] | 7.43 | > 100 | 43.1 | 47.6 | > 100 | 26 | 4.7 | 0 | 2.59 |
| > 50 | 4.05 ± 0.46 (≈ 10.7 µM) | > 50 | 14.9 ± 5.66 (≈ 39.3 µM) | > 100 | C=CCOc1cc(OC)c(Cl)c2c1C(=O)[C@@]1(O2)C(OC)=CC(=O)C[C@H]1C [Compound 02, 4 Position Allyl Griseofulvin Derivative] | 52.7 | > 50 | 56.9 | 85.2 | 3.93 ± 0.8 (≈ 10.4 µM) | 70.1 | 51.7 | 77 | 49.1 |
| > 25 | > 100 | > 100 | > 100 | > 100 | COC1=CC(=O)C[C@@H](C)[C@]12Oc1c(Cl)c(OC)cc(OC3CCCC3)c1C2=O [Compound 09, 4 Position Cyclopentyl Griseofulvin Derivative] | 59.5 | > 25 | 59.7 | 63.1 | > 25 | 40.9 | 34.2 | 45.9 | 31 |
| > 50 | 1.92 ± 0.19 (≈ 4.3 µM) | > 100 | > 100 | > 100 | COC1=CC(=O)C[C@@H](C)[C@]12Oc1c(Cl)c(OC)cc(OCc3ccccc3F)c1C2=O [Compound 06, 4 Position 2-Fluorobenzyl Griseofulvin Derivative] | 6.08 | > 100 | 55.6 | 69.8 | > 25 | 75.6 | 18.1 | 13.1 | 3.45 |
| > 25 | 3.82 ± 0.09 (≈ 8.78 µM) | > 50 | > 50 | > 100 | COC1=CC(=O)C[C@@H](C)[C@]12Oc1c(Cl)c(OC)cc(OCc3ccsc3)c1C2=O [Compound 07, 4 Position 3-Methylthiophene Griseofulvin Derivative] | 54.7 | > 50 | 59.7 | 73.8 | 17.6 ± 0.27 (≈ 40.4 µM) | 72.4 | 42.3 | 62.3 | 43.1 |
| > 100 | > 100 | > 100 | 17.85 ± 0.04 (≈ 45.4 µM) | > 25 | COC1=CC(=O)C[C@@H](C)[C@]12Oc1c(Cl)c(OC)cc(OCC3CC3)c1C2=O [Compound 04, 4 Position Cyclopropylmethyl Griseofulvin Derivative] | 65.5 | > 50 | 50.7 | 69.8 | > 100 | 48 | 26.2 | 70.5 | 41.4 |
| > 25 | 16.1 ± 1.3 (≈ 42.2 µM) | > 25 | 83.2 ± 14.5 (≈ 217 µM) | > 50 | COCOc1cc(OC)c(Cl)c2c1C(=O)[C@@]1(O2)C(OC)=CC(=O)C[C@H]1C [Compound 05, 4 Position Methoxymethyl Griseofulvin Derivative] | 73.7 | 81.4 ± 1.23 (≈ 213 µM) | 66 | 88.6 | 31.6 ± 7.3 (≈ 82.4 µM) | 71.7 | 58.4 | 75.4 | 49.1 |
| 2.04 ± 0.12 (≈ 5.41 µM) | 0.06 ± 0.02 (≈ 0.159 µM) | 1.35 ± 0.07 (≈ 3.58 µM) | 1.32 ± 0.01 (≈ 3.5 µM) | 1.28 (≈ 3.4 µM) | C#CCOc1cc(OC)c(Cl)c2c1C(=O)[C@@]1(O2)C(OC)=CC(=O)C[C@H]1C [Compound 01, 4 Position Propargyl Griseofulvin Derivative] | 96.6 | 1.84 ± 0.01 (≈ 4.88 µM) | 98.6 | 100 | 2.84 ± 0.22 (≈ 7.54 µM) | 91.3 | 98 | 100 | 97.4 |

| Structure (SMILES) | IC50 (Botrytis cinerea Pers.) [mg/L] | IC50 [1] [mg/L] | IC50 (Botryosphaeria dothidea) [mg/L] | IC50 [2] [mg/L] | IC50 (Alternaria alternate) [mg/L] | inhibition of growth at 100 µg/mL (Cytospora sp.) [%] | IC50 (Cytospora sp.) [mg/L] | inhibition of growth at 100 µg/mL (Botrytis cinerea Pers.) [%] | inhibition of growth at 100 µg/mL (Botrytis sp.) [%] | IC50 (Botrytis sp.) [mg/L] | inhibition of growth at 100 µg/mL [1] [%] | inhibition of growth at 100 µg/mL (Botryosphaeria dothidea) [%] | inhibition of growth at 100 µg/mL [2] [%] | inhibition of growth at 100 µg/mL (Alternaria alternate) [%] |
| --- | --- | --- | --- | --- | --- | --- | --- | --- | --- | --- | --- | --- | --- | --- |
| Cc1cc(O)no1 [Hym, Hymexazol, reference compound] | > 6.25 | > 100 | > 50 | 45.3 ± 14 (≈ 457 µM) | 15.58 ± 0.13 (≈ 157 µM) | 48 | > 100 | 100 | 92.5 | 13.5 ± 1.89 (≈ 136 µM) | 43.2 | 55.6 | 97.4 | 92.6 |
